Reference: patent US7598419B2, “Compounds for modulating cell proliferation” (HSC Research and Development Limited Partnership, priority 2004, dated 2009)
Each block holds one compound with its values, some of them ahead of it.

Experiments:
normal bone marrow cells [1] = experiment: CFU-GEMM assay: normal bone marrow differentiation in culture; type: cell-based, human
Protocol: (§1) The CFU-GEMM assay was performed according to Fauser and Messner (1978, Blood, 52(6) 143-8) and Messner and Fausser (1980, Blut, 41(5) 327-33) with some variations. In brief, heparinized bone marrow cells were layered over Percoll (1.077 gm/ml) (Pharmacia Fine Chemical, Piscataway N.J.) and centrifuged at 400 g at 4° C. for 10 minutes to remove neutrophils and RBCs. The fractionated BM cells at 2×10^5 cells/ml were cultured in IMDM (OCI, Toronto) containing 0.9% (vol/vol) methylcellulose supplementd with 30% FCS (Cansera Rexdale, ON.) or normal human plasma, a cocktail of cytokines containing G-CSF (10 ng/ml, Amgen), IL-3 (40 U/ml, Immunex), MGF (50 ng/ml, Immunex), Erythropoietin (2 u/ml, Epprex) or TPO (10 ng/ml, Amgen), 5×10^−5M β-2-mercaptoethanol and the specified concentration of CR4. The culture mixture was plated in 1 ml volumes into 35 mm petri dishes and incubated at 37° C., 5% CO2 in a humidified atmosphere. All cultures were evaluated at 14 days for the number of BFU-E colonies (defined as aggregates of more than 500 hemoglobinized cells or, 3 or more erythroid subcolonies), CFU-GM colonies (defined as granulocyte or monocyte-macrophage cells or both), CFU-Meg colonies (comprising 4 or more megakaryocytes) and CFU-GEMM colonies (a mixed population comprising of all elements).
as §1, with “1243-8)” for “143-8)”, “concentrations” for “concentration”, “CR19.” for “CR4.”, “hemaglobinized” for “hemoglobinized”, “subcolonies) and CFU-C” for “subcolonies), CFU-GM”, “both).” for “both), CFU-Meg colonies (comprising 4 or more megakaryocytes) and CFU-GEMM colonies (a mixed population comprising of all elements).”
as §1, with “1243-8)” for “143-8)”, “variations (British Journal of Haematology, 1992, 80, p 40-48).” for “variations.”, “test compound.” for “CR4.”, “CO2,” for “CO2”, “subcolonies) and CFU-C” for “subcolonies), CFU-GM”, “both).” for “both), CFU-Meg colonies (comprising 4 or more megakaryocytes) and CFU-GEMM colonies (a mixed population comprising of all elements).”

[2] = system: Philadelphia positive acute lymphoblastic leukemia (Ph+ ALL) cells; experiment: Colony assay of Philadelphia positive ALL cells in methylcellulose culture; type: cell-based, human
Protocol: (§2) Ph+ ALL cells were plated in 1 ml volumes, in the absence of exogenous growth factors, into 35 mm petri dishes (Nunc, Gibco) containing alpha MEM (Gibco) plus 10-20% FCS (Cansera Rexdale, ON.) in 0.9% (vol/vol) methylcellulose (Fluka, Switzerland) with the indicated concentrations of CR4. Cultures were set at 37° C., 5% CO2 in a humidified atmosphere. Colonies consisting of more than 20 cells were counted at 12 days or earlier using an inverted microscope.
as §2, with “ALL” for “Ph+ ALL”, “20%” for “10-20%”, “and” for “with”, “compound.” for “CR4.”
as §2, with “ALL” for “Ph+ ALL”, “20%” for “10-20%”, “and” for “with”, “CR24.” for “CR4.”, “9” for “12”
as §2, with “ALL” for “Ph+ ALL”, “20%” for “10-20%”, “and” for “with”, “CR19.” for “CR4.”, “9” for “12”

[3] = system: a variety of cancer cells; experiment: Growth of cancer cells in culture (summary over cell types); type: cell-based; conditions: for effectiveness against a variety of cell types: Acute Lymphoblastic Leukemia, Philadelphia positive Leukemia, Acute Myeloid Leukemia
[4] = system: cells of the myeloid lineage; conditions: in vitro, ex vivo and in vivo; cited from earlier work
normal bone marrow cells [5] = experiment: In vitro purging of normal bone marrow; type: cell-based, human; conditions: 50 μM, seven hours exposure; FIG. 21
Protocol: Heparinized bone marrow cells were layered over Percoll (1.077 gm/ml) (Pharmacia Fine Chemical, Piscataway N.J.) and centrifuged at 400 g at 4° C. for 10 minutes to remove neutrophils and RBCs.
(§3) For the purging process, the cells were resuspended at 1×10^6/ml in complete medium with or without 50 μM CR4. The cells were incubated with the CR4 for two and a half hours at 37° C., 5% CO2. At the end of this period the cells were thoroughly washed in medium to remove CR4 and then cultured at 2×10^5 cells/ml in IMDM (OCI, Toronto) containing 0.9% (vol/vol) methylcellulose supplemented with 30% FCS (Cansera Rexdale, ON.) or normal human plasma, a cocktail of cytokines containing G-CSF (10 ng/ml, Amgen), IL-3 (40 U/ml, Immunex), MGF (50 ng/ml, Immunex), Erythropoietin (2 u/ml, Epprex) or TPO (10 ng/ml, Amgen) and 5×10^−5M β-2-mercaptoethanol. The culture mixture was plated in 1 ml volumes into 35 mm petri dishes and incubated at 37° C., 5% CO2 in a humidified atmosphere. All cultures were evaluated at 14 days for the number of BFU-E colonies (defined as aggregates of more than 500 hemaglobinized cells or, 3 or more erythroid subcolonies), CFU-C colonies (defined as granulocyte or monocyte-macrophage cells or both) and CFU-GEMM colonies (a mixed population comprising of all elements).
as §3, with “μM CR11.” for “μM CR4.”, “the tryrphostin” for “the CR4”, “for seven” for “for two and a half”, “remove CR11” for “remove CR4”, “methylcellulose supplementd” for “methylcellulose supplemented”, “500 hemoglobinized” for “500 hemaglobinized”

[6] = system: Philadelphia positive ALL, AML and lymphoma; experiment: High dose ex vivo / in vitro purging assays (summary); type: cell-based
[7] = system: Philadelphia positive acute lymphoblastic leukemia cells; experiment: In vitro purging of Philadelphia positive ALL with CR11; type: cell-based, human; conditions: 50 μM, 7 hours exposure; FIG. 22
Protocol: For the purging assay, the cells were resuspended in complete medium with or without CR11 as indicated and incubated at 37° C., 5% CO2 for 0-7 hours. Cells were then washed thoroughly with medium to remove the CR11, resuspended and plated in 1 ml volumes, in the absence of exogenous growth factors, into 35 mm petri dishes (Nunc, Gibco) containing alpha MEM (Gibco) plus 20% FCS (Cansera Rexdale, ON.) in 0.9% (vol/vol) methylcellulose (Fluka, Switzerland). Cultures were set at 37° C., 5% CO2 in a humidified atmosphere. Colonies consisting of more than 20 cells were counted at 9 days or earlier using an inverted microscope.

[8] = low nanomolar doses, long term exposure

SMILES: COc1cc(/C=C/C=C(\C#N)C(=O)NCCO)cc(OC)c1O [CR24, (E,E)-2-(β-Ethanolaminocarbonyl)-3-(3,5-dimethoxy-4-hydroxystyryl)acrylonitrile]
bone marrow colony formation (normal bone marrow cells [1]; 10 or 20 μM, 14 days, FIG. 13): minimal inhibition
lowest concentration effective against Ph+ ALL cells ([2]; colonies at 9 days, FIG. 10): 0.5 µM

SMILES: COc1cc(/C=C/C=C(\C#N)C(=O)NCc2ccccc2)ccc1O [CR56, (E,E) 2-(benzylaminocarbonyl)-3-(3-methoxy-4-hydroxystyryl)acrylonitrile]
promotion of myelopoiesis [4]: capable of promoting myelopoiesis

SMILES: COc1cc(/C=C/C=C(\C#N)C(=O)NCCc2ccccc2)cc(OC)c1O [CR8, (E,E)-2-(Phenylethylaminocarbonyl)-3-(3,5-dimethoxy-4-hydroxystyryl)acrylonitrile]
promotion of myelopoiesis [4]: capable of promoting myelopoiesis

SMILES: COc1cc(/C=C/C=C(C#N)C#N)cc(OC)c1O [CR7, (E,E)-2-cyano-3-(3,5-dimethoxy-4-hydroxystyryl)acrylonitrile]
promotion of myelopoiesis [4]: capable of promoting myelopoiesis

The next lines start with results.

development of BFU-E colonies (normal bone marrow cells [1]; 2.5 μM, 14 days, FIG. 12): significant inhibition
BFU-E colonies (normal bone marrow cells [1]; 5 μM, 14 days, FIG. 12): virtually absent
SMILES: N#C/C(=C\C=C\c1ccccc1)C(=O)NCc1ccc(O)c(O)c1 [CR19, (E,E)-2-(3,4 Dihydroxybenzylaminocarbonyl)-3-styrylacrylonitrile]
effectiveness against a variety of cell types [3]: highly effective
toxicity to cancer cells [3, 8]: highly toxic
promotion of myelopoiesis [4]: capable of promoting myelopoiesis
CFU-C colony formation (normal bone marrow cells [1]; 2.5 μM, 14 days, FIG. 12): boosted
CFU-C colony formation (normal bone marrow cells [1]; 5 μM, 14 days, FIG. 12): stimulatory effect disappeared
normal cell growth and differentiation (normal bone marrow cells [1]; [8]): unaffected

BFU-E, CFU-GEMM and CFU-C colonies after purging (normal bone marrow cells [5]): all normal
SMILES: COc1cc(/C=C/C=C(\C#N)C(=O)NCc2ccc(O)c(O)c2)cc(OC)c1O [CR11, (E,E)-2-(3,4-Dihydroxybenzylaminocarbonyl)-3-(3,5-dimethoxy-4-hydroxystyryl)acrylonitrile]
colony formation of normal bone marrow after purging (normal bone marrow cells [5]): did not result in any significant inhibition
effectiveness as ex vivo purging agents [6]: effective
effectiveness against a variety of cell types [3]: highly effective
promotion of myelopoiesis [4]: capable of promoting myelopoiesis
killing of Ph+ ALL cells after purging [7]: complete killing

BFU-E colony formation (normal bone marrow cells [1]; 20 μM, 14 days, FIG. 13): caused inhibition
SMILES: N#C/C(=C\C=C\c1ccc(O)c(O)c1)C(=O)NCc1ccc(O)c(O)c1 [CR21, (E,E)-2-(3,4 Dihydroxybenzylaminocarbonyl)-3-(3,4-dihydroxystyryl)acrylonitrile]
concentrations displaying inhibition of Ph+ ALL cell growth ([2]; Example 42, FIG. 8, colonies at 12 days): 5 µM
